Assay [1] has as its target T1, Angiotensin II receptor (AT-1) type-1 (Rattus norvegicus, UniProt P29089+P25095).
T1 sequence (P29089 whole entry): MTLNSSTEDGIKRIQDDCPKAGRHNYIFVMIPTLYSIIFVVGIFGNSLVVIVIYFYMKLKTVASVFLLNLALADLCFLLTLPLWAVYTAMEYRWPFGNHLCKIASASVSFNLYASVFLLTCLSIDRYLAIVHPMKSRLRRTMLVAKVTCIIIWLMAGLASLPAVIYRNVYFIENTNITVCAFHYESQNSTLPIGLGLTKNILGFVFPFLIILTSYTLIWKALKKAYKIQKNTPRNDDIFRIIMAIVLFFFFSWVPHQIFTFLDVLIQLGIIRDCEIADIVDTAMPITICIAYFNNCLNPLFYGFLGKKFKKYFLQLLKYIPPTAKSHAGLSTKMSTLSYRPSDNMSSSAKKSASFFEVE
T1 sequence (P25095 whole entry): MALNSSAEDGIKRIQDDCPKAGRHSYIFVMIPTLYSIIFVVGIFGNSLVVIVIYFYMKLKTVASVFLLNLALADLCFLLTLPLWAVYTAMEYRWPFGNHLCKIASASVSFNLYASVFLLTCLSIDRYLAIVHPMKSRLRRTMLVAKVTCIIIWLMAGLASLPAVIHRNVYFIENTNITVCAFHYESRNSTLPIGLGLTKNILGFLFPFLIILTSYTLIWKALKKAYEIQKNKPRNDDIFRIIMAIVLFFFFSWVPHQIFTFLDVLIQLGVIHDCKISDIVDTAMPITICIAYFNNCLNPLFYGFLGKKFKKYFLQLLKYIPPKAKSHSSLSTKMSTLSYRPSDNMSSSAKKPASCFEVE
Briefly: Compound was tested for inhibition of 125 I-Angiotensin II specific binding to rat mesenteric arteries. The class given is protein assay.

The species entered for assay [2] is Oryctolagus cuniculus. Briefly: Compound was tested for inhibition of Angiotensin II-induced vasoconstriction of rabbit aorta. The assay is classed as functional.
The species entered for assay [3] is Oryctolagus cuniculus. Briefly: Compound was tested for Non-competitive inhibition ofAngiotensin II -induced vasoconstriction of rabbit aorta. The class given is functional.
Assay [4] addresses T2, Type-1 angiotensin II receptor (Homo sapiens, UniProt P30556).
T2 sequence (P30556 whole entry): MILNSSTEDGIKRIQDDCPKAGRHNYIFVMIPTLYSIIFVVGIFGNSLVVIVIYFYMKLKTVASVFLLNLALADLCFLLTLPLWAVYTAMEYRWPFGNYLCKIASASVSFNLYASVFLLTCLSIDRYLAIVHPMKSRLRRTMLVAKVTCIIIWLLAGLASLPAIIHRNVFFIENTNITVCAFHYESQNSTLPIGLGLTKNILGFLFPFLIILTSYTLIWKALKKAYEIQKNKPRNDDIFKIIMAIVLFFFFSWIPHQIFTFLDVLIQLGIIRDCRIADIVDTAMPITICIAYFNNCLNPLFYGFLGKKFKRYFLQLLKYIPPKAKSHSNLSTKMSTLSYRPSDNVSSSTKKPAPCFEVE
Briefly: Tested for inhibition of Angiotensin II specific binding to Angiotensin II receptor, type 1 in the recombinant human AT-1 receptor expressed in LhAT-1D6 cells. The class given is cell-based.

The values that follow come from ChEMBL document CHEMBL1128136, “and -N-[(1-benzyl-1H-imidazol-5-yl)-alkyl]-amino acids as angiotensin II AT-1 antagonists” (Bioorg Med Chem Lett, 1995).

Broadly, the IC50 is the concentration that gives 50% inhibition. Consider `CCCCc1ncc(CN(CC(=O)O)Cc2ccccc2)n1Cc1ccc(C(=O)O)cc1`, for which, in assay [1], the IC50 was 31 nM. This compound also returned a Kb in the assay listed under Oryctolagus cuniculus [2] of 11 nM. In assay [1], `CCCCc1ncc(CN[C@@H](C(=O)O)C(C)c2ccccc2)n1Cc1ccc(C(=O)O)cc1` (stereo partly drawn) gave an IC50 of 28 nM. The same compound registered a Kb in the assay filed under Oryctolagus cuniculus [3] of 0.6 nM. `CCCCc1ncc(CN[C@H](C(=O)O)C(C)c2ccccc2)n1Cc1ccc(C(=O)O)cc1` (stereo partly drawn): the IC50 in assay [1] stood at 176 nM. Moreover, the Kb in the assay filed under Oryctolagus cuniculus [2] amounted to 117 nM. Turning to `CCCCc1ncc(CN[C@H](Cc2cccs2)C(=O)O)n1Cc1ccc(C(=O)O)cc1`, the concentration for half-maximal inhibition (IC50) in assay [1] is given as 36.7 nM. This compound gave a Kb in the assay listed under Oryctolagus cuniculus [2] of 5 nM. `CCCCc1ncc(/C=C(\Cc2cccs2)C(=O)O)n1Cc1ccc(C(=O)O)cc1` [EPROSARTAN] came in with a Kb in the assay filed under Oryctolagus cuniculus [2] of 0.21 nM. Take `CCCCc1ncc(CN[C@@H](Cc2ccccc2)C(=O)O)n1Cc1ccc(C(=O)O)cc1`: in assay [1], the IC50 turned out to be 517 nM. The compound further displayed a Kb in the assay filed under Oryctolagus cuniculus [2] of 125 nM. Regarding `CCCCc1ncc(CNCC(=O)O)n1Cc1ccc(C(=O)O)cc1`, the IC50 in assay [4] was 298 nM. In the assay filed under Oryctolagus cuniculus [2], the Kb came out at 335 nM. Turning to `CCCCc1ncc(CN[C@H](Cc2ccccc2)C(=O)O)n1Cc1ccc(C(=O)O)cc1`, the IC50 in assay [1] is reported as 3.8 nM. The same compound displayed a Kb in the assay filed under Oryctolagus cuniculus [2] of 3.6 nM. For `CCCCc1ncc(CN[C@H](Cc2c[nH]c3ccccc23)C(=O)O)n1Cc1ccc(C(=O)O)cc1`, the IC50 in assay [4] was 2.9 nM. In the assay listed under Oryctolagus cuniculus [2], the Kb worked out at 48 nM. On the same counts, the results for `CCCCc1ncc(CN[C@@H](Cc2c[nH]c3ccccc23)C(=O)O)n1Cc1ccc(C(=O)O)cc1` are 48.3 nM and 885 nM. `CCCCc1ncc(CN[C@@H](Cc2cccs2)C(=O)O)n1Cc1ccc(C(=O)O)cc1` came in with a concentration for half-maximal inhibition (IC50) in assay [1] of 673 nM. This compound returned a Kb in the assay listed under Oryctolagus cuniculus [2] of 63 nM.

`CCCCc1ncc(CN(CC(=O)O)Cc2cccs2)n1Cc1ccc(C(=O)O)cc1` displayed a 50% inhibitory concentration (IC50) in assay [1] of 169 nM. The compound further returned a Kb in the assay filed under Oryctolagus cuniculus [2] of 2.4 nM.
